# Assay results: patent US9011882B2, “Dimethylarginine dimethylaminohydrolase inhibitors and methods of use thereof” (The Board of Trustees of the Leland Stanford Junior …, priority 2012, dated 2015)
# “Also recorded” adds a separate entry of the source.
# Assays:
# [1] = biological target: T1, human DDAH1 (Homo sapiens (Human), UniProt O94760); test: Inhibitors of human DDAH-1 validated in full dose-response curves (Table 1); assay type: biochemical; conditions: for IC50: Assay Explorer software
# Protocol: (§1) Over 130,000 small molecules deposited in the Stanford High-throughput Bioscience Center (HTBC) were screened using the enzymatic assay to identify chemicals that regulate DDAH activity. In brief, recombinant human DDAH1 (rhDDAH1) was mixed with ADMA in the presence of screening buffer in 384-well plates using a Staccato multidrop. Small molecules (100 nL each) were then added to the wells using a robotic arrayer to yield a final compound screening concentration of up to 50 μM. Plates were incubated at 37° C. for 4 hours. Subsequently, color developing reagent (containing 2 volumes of Antipyrine and 1 volume of 2,3-Butanedione oxime reagents) was added using Velocity 11 system and the plates were sealed using an automated plate sealer. Finally, color was developed by incubating the plates at 60° C. for 90 minutes prior to spinning them at 1,500 rpm for 5 minutes. In this assay absorbance is proportional to the concentration of citrulline generated by DDAH, and was measured using an AnalystGT plate reader at 485 nm using a dichroic beamsplitter. The signal-to-noise ratio of separation was calculated using an established formula in Zhang. (Zhang, J. H., Chung, T. D. & Oldenburg, K. R. A Simple Statistical Parameter for Use in Evaluation and Validation of High Throughput Screening Assays. J Biomol Screen 4, 67-73 (1999)).
# Inhibitors were defined as compounds that reduce absorbance by at least 30% compared to control wells. The hits were validated using 8-point full dose response study (50 μM to 0.39 μM in serial dilutions). […] To determine which of these hits were true inhibitors of DDAH activity, a modification of a validated secondary fluorometric assay was used, as described below. […]
# [2] = biological target: recombinant human DDAH1 (rhDDAH1) (Homo sapiens (Human), UniProt O94760); test: Colorimetric L-citrulline assay of DDAH activity (ADMA substrate; high throughput screen and orthogonal validation); assay type: biochemical; conditions: for IC50: high throughput screen of library copies (BMF-6, BMF-7, BMF-8, MicroSource, LOPAC), dose-dependent inhibition
# Protocol: (§2) The enzymatic activity of DDAH was monitored using a colorimetric assay that detects product (L-citrulline) formation from the substrate ADMA. In brief, recombinant human DDAH1 (rhDDAH1) was mixed with ADMA in the presence of screening buffer in 384-well plates. Plates were incubated at 37° C. for 4 hours. Subsequently, color developing reagent (containing 2 volumes of Antipyrine and 1 volume of 2,3-Butanedione oxime reagents) was added and the plates were incubated at 60° C. for 90 min prior to spinning them at 1,500 rpm for 5 min. In this assay absorbance is proportional to the concentration of citrulline generated by DDAH, and was measured using an AnalystGT plate reader at 485 nm using a dichroic beamsplitter.
# as §2, with “ADMA, as described in Example 1.” for “ADMA.”, “antipyrine” for “Antipyrine”
# The L-citrulline assay was based upon an original test-tube method developed by Prescott and Jones in 1969 (Prescott, L. M. & Jones, M. E. Modified methods for the determination of carbamyl aspartate. Anal Biochem 32, 408-419 (1969)), which was adapted and optimized for a microplate format. Subsequently, the activity of DDAH was quantified by detecting its conversion of ADMA to citrulline using the optimized protocol. The assay was scaled up to a 384-well format for high throughput chemical screening.
# as §1
# In brief, various amounts of rhDDAH1 (0.1 to 10 μM) were incubated with various concentrations of ADMA (1 μM to 8 mM) for various time points (30 min to 10 h) at room temperature or 37° C. […] The reactions were stopped and color was developed as described above followed by incubation at 60° C. for 90 min. Absorbance, proportional to DDAH activity, was measured at 485 nm±20 nm. In order to screen the entire library, the biochemical properties of the assay were optimized, as described above. The technique was modified so as to reduce the number of steps and facilitate robotic handling and throughput. Subsequently, HTS was performed using 384-well plates. […]
# [3] = biological target: T1, human DDAH1; test: Fluorimetric CPM assay of DDAH activity (SMTC substrate); assay type: biochemical; conditions: for inhibition of DDAH activity, CPM fluorometric validation: fresh powders from vendors, vs vehicle; for IC50: CPM assay, 100 μM SMTC, Assay Explorer software, read-out: IC50
# Protocol: (§3) The activity of human DDAH1 was quantified using fluorimetric assay by incubating the enzyme with an artificial substrate S-methyl-thiocitrulline (SMTC). DDAH metabolizes SMTC into L-citrulline and methanethiol (CH3—SH). The thiol released from the reaction can be monitored fluorimetrically by adding 7-Diethylamino-3-(4-maleimidophenyl)-4-methylcoumarin (CPM).
# as §3, with “(SMTC), as described in Example 1.” for “(SMTC).”
# For the secondary assay, a fluorimetric assay that uses SMTC as a substrate was adapted. DDAH metabolizes SMTC into L-citrulline and methanethiol (CH3—SH). In brief, DDAH (30 nM final concentration) was mixed with SMTC (100 μM final concentration), CPM (50 μM final concentration) and screening buffer (containing a final concentration of 0.01% Triton-X100 and 1 mM EDTA). The reaction mix was added to black 384-well plates to validate primary hits that modulate DDAH activity. The release of CH3—SH was monitored fluorimetrically by adding 7-Diethylamino-3-(4-maleimidophenyl)-4-methylcoumarin (CPM) as described in Linsky (Linsky, T. & Fast, W. A continuous, fluorescent, high-throughput assay for human dimethylarginine dimethylaminohydrolase-1. J Biomol Screen 16, 1089-1097 (2011)).
# [4] = system: human microvascular endothelial cells (HMEC-1); test: Intracellular ADMA by ELISA in endothelial cells; assay type: cell-based; conditions: 20 μM, 24 hours, compared to vehicle control
# Protocol: (§4) First, human microvascular endothelial cells (HMEC-1; ATCC) were seeded in 75 cm^2 cell culture flasks and cultured in fully supplemented DMEM (Invitrogen cat #11995; supplemented with 10% fetal bovine serum (FBS), 4 mM HEPES; GIBCO 15630 and penicillin/streptomycin). The cells were incubated at 37° C./5% CO2 until ˜60% confluency. The cells were then washed with phosphate buffered saline (PBS) and plain DMEM (DMEM with no addition of serum or the other supplements) was mixed with esomeprazole (20 μM final concentration from 100 mM stock) and added to the cells. […] After ˜4 hrs of incubation, the media was aspirated from each flask and the cells were cultured in fully supplemented DMEM as described above and incubated at 37° C./5% CO2 for another 20 hrs. The serum was initially withdrawn due to the possibility that esomeprazole would interact with Cys containing serum proteins and fail to internalize at effective concentrations.
# After 24 hrs, the cells were harvested. Total cellular protein was estimated as described and ADMA was measured by enzyme-linked immunosorbent assay (ELISA) following the manufacturer's recommendations; DLD Diagnostika, Hamburg, Germany).
# as §4, with “FBS,” for “fetal bovine serum (FBS),”, “PBS” for “phosphate buffered saline (PBS)”, “PD 404” for “esomeprazole”, “conc” for “concentration”, “The serum was initially withdrawn due to the possibility that esomeprazole would interact with Cys containing serum proteins and fail to internalize at effective concentrations.” left out
# After 24 hours, the cells were harvested. Total cellular protein was estimated as described and ADMA was measured by ELISA following the manufacturer's recommendations; DLD Diagnostika, Hamburg, Germany).
# [5] = fresh powders, FIG. 3, vs vehicle
# [6] = 50 μM, compared to vehicle control
# T1 sequence (O94760 whole entry): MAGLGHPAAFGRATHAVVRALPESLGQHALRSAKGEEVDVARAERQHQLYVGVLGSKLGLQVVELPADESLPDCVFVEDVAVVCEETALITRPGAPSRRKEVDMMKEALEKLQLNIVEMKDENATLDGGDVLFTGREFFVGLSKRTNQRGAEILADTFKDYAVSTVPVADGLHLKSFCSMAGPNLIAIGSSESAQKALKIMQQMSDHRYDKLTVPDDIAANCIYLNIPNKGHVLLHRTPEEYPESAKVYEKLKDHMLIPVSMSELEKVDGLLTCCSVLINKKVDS
# Chain of recombinant human DDAH1 (rhDDAH1) (O94760 whole entry): as above
Hill Slope [1],IC50 [1],Compound,further results
1.6,14.1 µM,Cc1cc(C)c2c(=O)n(CC(=O)NC(C)CCc3ccccc3)sc2n1 (centres unmarked),
1.5,9.9 µM,COc1ccc(OC)c(CCNC(=O)Cn2sc3nc(C)cc(C)c3c2=O)c1,
0.4,39.9 µM,Cc1cc(C)c2c(=O)n(CC(=O)NCc3ccccc3Cl)sc2n1,
1.7,13.7 µM,Cc1cc(C)c2c(=O)n(CC(=O)NC(C)c3ccccc3)sc2n1 (centres unmarked),
1.2,13.4 µM,Cc1cc(C)c2c(=O)n(CC(=O)NCCc3ccc(Cl)cc3)sc2n1,
1.5,10.5 µM,CCOc1ccc(CCNC(=O)Cn2sc3nc(C)cc(C)c3c2=O)cc1,
1,13.2 µM,O=c1[nH]sc2ccccc12 [Benzo[d]isothiazol-3(2H)-one],
1.5,11 µM,Cc1cc(C)c2c(=O)n(CC(=O)NCc3ccc4c(c3)OCO4)sc2n1,

# More lines, now with the values behind:
Compound,Hill Slope [1],IC50 [1],further results
O=C1CC(N2CCCCCC2)C(=O)N1c1cccc2ccccc12 (centres unmarked),1.8,13.1 µM,
Cc1cc(C)c2c(=O)n(CC(=O)NC3CCCC(C)C3C)sc2n1 (centres unmarked),1.7,8.6 µM,
COCCNC(=O)Cn1sc2nc(C)cc(C)c2c1=O,1.4,3.3 µM,
Cc1ccc(NC(=O)/C=C/C(N)=O)cc1,1.1,21.2 µM,
O=C(O)c1ccc(N2C(=O)C=CC2=O)cc1,1.6,23.3 µM,
COCCCOc1ccnc(C[S+]([O-])c2nc3ccccc3[nH]2)c1C (centres unmarked) [Rabeprazole],,,"inhibition of DDAH activity, orthogonal colorimetric assay [2, 5]: significantly inhibited DDAH activity; inhibition of DDAH activity, CPM fluorometric validation [3]: inhibited DDAH activity significantly"
O=c1c2ccccc2[se]n1-c1ccccc1 [ebselen],,,"inhibition of DDAH activity, CPM fluorometric validation [3]: confirmed known DDAH inhibitors"
Cc1ccc(-c2ccc(CCC(=O)O)o2)cc1,1.1,45.8 µM,
COc1ccc2[nH]c([S+]([O-])Cc3ncc(C)c(OC)c3C)nc2n1 (centres unmarked) [Tenatoprazole],,,"IC50 [2]: 7.8 µM; inhibition of DDAH activity, CPM fluorometric validation [3]: inhibited DDAH activity significantly"
CCCCNC(=O)Cn1sc2nc(C)cc(C)c2c1=O,1.7,5.1 µM,
Cc1cc(C)c2c(=O)n(CC(=O)NCCCSC3CCCCC3)sc2n1,1.6,12.8 µM,
CCOCCCNC(=O)Cn1sc2nc(C)cc(C)c2c1=O,2.3,7.1 µM,
COc1ccc2nc([S@@+]([O-])Cc3ncc(C)c(OC)c3C)[nH]c2c1 [Esomeprazole],,,"inhibition of DDAH activity, orthogonal colorimetric assay [2, 5]: significantly inhibited DDAH activity; inhibition of DDAH activity, CPM fluorometric validation [3]: inhibited DDAH activity significantly; increase in intracellular ADMA [4]: ~37%"
Cc1cc(C)c2c(=O)n(CC(=O)NCCC3=CCCCC3)sc2n1,2,11.8 µM,
N=C1Sc2ccccc2C2=NCCCN12 [PD 404],,,"inhibition of DDAH activity, orthogonal colorimetric assay [2, 6]: significantly inhibited DDAH activity; IC50 [2]: 8.71 µM; inhibition of DDAH activity, CPM fluorometric assay [3, 6]: directly inhibit DDAH activity; also recorded: inhibited DDAH activity significantly; increase in intracellular ADMA [4]: ~84%"
Cc1c(OCC(F)(F)F)ccnc1C[S+]([O-])c1nc2ccccc2[nH]1 (centres unmarked) [Lansoprazole],,,"IC50 [2]: 51 µM; inhibition of DDAH activity, CPM fluorometric validation [3]: inhibited DDAH activity significantly"
CN=c1nc(-c2ccccc2)n(-c2ccccc2)s1 [SCH-202676],,,IC50 [3]: 13.3 µM
"COc1cnn(-c2ccccc2)c(=O)c1S [4-MMP, 4-mercapto-5-methoxy-2-phenyl-3(2H)-pyridazinone]",,,IC50 [3]: 12.7 µM
N/C=C1\C=C(c2ccccc2)OC1=S,1.3,17.7 µM,
COc1ccnc(C[S+]([O-])c2nc3cc(OC(F)F)ccc3[nH]2)c1OC (centres unmarked) [Pantoprazole],,,"IC50 [2]: 63 µM; inhibition of DDAH activity, CPM fluorometric validation [3]: inhibited DDAH activity significantly"
